# Laboratory results taken from ChEMBL document CHEMBL1134025, “Thiosugars. Part 9: synthesis and biological evaluation of some 4'-thio-L-arabino nucleoside analogues” (2001).
# Activity calls are given as the source filed them. No cut-off for these calls is given here.
# How the values were obtained:
# [1] = test system: Coxsackievirus B4; assay: Minimum inhibitory concentration required to reduce Coxsackie B4 virus induced cytopathogenicity by 50%; assay type: functional; details: Enterovirus B
# [2] = test system: Human immunodeficiency virus 1; assay: Minimum inhibitory concentration required to reduce HIV-1 induced cytopathogenicity by 50%; assay type: functional
# [3] = test system: Human betaherpesvirus 5; assay: Minimum inhibitory concentration required to reduce HCMV induced cytopathogenicity by 50%; assay type: functional
# [4] = test system: Human alphaherpesvirus 1; assay: Minimum inhibitory concentration required to reduce HSV-1 induced cytopathogenicity by 50%; assay type: functional
# [5] = test system: Human alphaherpesvirus 2; assay: Minimum inhibitory concentration required to reduce HSV-2 induced cytopathogenicity by 50%; assay type: functional
# [6] = test system: Human respirovirus 3; assay: Minimum inhibitory concentration required to reduce Parainfluenza-3 virus induced cytopathogenicity by 50%; assay type: functional
# [7] = test system: Punta Toro virus; assay: Minimum inhibitory concentration required to reduce Punta Toro virus induced cytopathogenicity by 50%; assay type: functional
# [8] = test system: Mammalian orthoreovirus 1; assay: Minimum inhibitory concentration required to reduce Reo virus-1 induced cytopathogenicity by 50%; assay type: functional, reo virus type 1
# [9] = test system: Respiratory syncytial virus; assay: Minimum inhibitory concentration required to reduce Respiratory syncytial virus induced cytopathogenicity by 50%; assay type: functional; details: human respiratory syncytial virus
# [10] = test system: Sindbis virus; assay: Minimum inhibitory concentration required to reduce Sindbis virus induced cytopathogenicity by 50%; assay type: functional
# [11] = test system: Vesicular stomatitis virus; assay: Minimum inhibitory concentration required to reduce Vesicular stomatitis virus induced cytopathogenicity by 50%; assay type: functional
# [12] = test system: Human alphaherpesvirus 3; assay: Minimum inhibitory concentration required to reduce VZV induced cytopathogenicity by 50%; assay type: functional
# [13] = test system: Human immunodeficiency virus 2; assay: Minimum inhibitory concentration required to reduce HIV-2 induced cytopathogenicity by 50%; assay type: functional
# [14] = test system: Human alphaherpesvirus 1; assay: Minimum inhibitory concentration required to reduce HSV-1(KOS) induced cytopathogenicity by 50%; assay type: functional
# [15] = test system: Coxsackievirus B4; assay: Cytotoxicity was evaluated against Coxsackie B4 virus at 200-400 uM; IA=inactive; assay type: functional, organism-based
# [16] = test system: Human betaherpesvirus 5; assay: Cytotoxicity was evaluated against HCMV at 200-400 uM; IA=inactive; assay type: functional, organism-based
# [17] = test system: Human immunodeficiency virus 1; assay: Cytotoxicity was evaluated against HIV-1 at 200-400 uM; IA=inactive; assay type: functional, organism-based
# [18] = test system: Human alphaherpesvirus 2; assay: Cytotoxicity was evaluated against HSV-2 at 200-400 uM; IA=inactive; assay type: functional, organism-based
# [19] = test system: Human immunodeficiency virus 2; assay: Cytotoxicity was evaluated against HIV-2 at 200-400 uM; IA=inactive; assay type: functional, organism-based
# [20] = test system: Human alphaherpesvirus 1; assay: Cytotoxicity was evaluated against HSV-1 at 200-400 uM; IA=inactive; assay type: functional, organism-based
# [21] = test system: Human respirovirus 3; assay: Cytotoxicity was evaluated against Parainfluenza-3 virus at 200-400 uM; IA=inactive; assay type: functional, organism-based
# [22] = test system: Punta Toro virus; assay: Cytotoxicity was evaluated against Punta Toro virus at 200-400 uM; IA=inactive; assay type: functional, organism-based
# [23] = test system: Mammalian orthoreovirus 1; assay: Cytotoxicity was evaluated against Reo virus-1 at 200-400 uM; IA=inactive; assay type: functional, organism-based; details: reo virus type 1
# [24] = test system: Respiratory syncytial virus; assay: Cytotoxicity was evaluated against Respiratory syncytial virus at 200-400 uM; IA=inactive; assay type: functional, organism-based
# [25] = test system: Sindbis virus; assay: Cytotoxicity was evaluated against Sindbis virus at 200-400 uM; IA=inactive; assay type: functional, organism-based
# [26] = test system: Human alphaherpesvirus 3; assay: Cytotoxicity was evaluated against VZV at 200-400 uM; IA=inactive; assay type: functional, organism-based
# [27] = test system: Vesicular stomatitis virus
# [28] = test system: Vaccinia virus; details: Orthopoxvirus vaccinia
SMILES,MIC [1],MIC [2],MIC [3],MIC [5],MIC [6],MIC [7],Cytotoxicity [15],Cytotoxicity [16],Cytotoxicity [17],Cytotoxicity [18],Cytotoxicity [19],Cytotoxicity [20],Cytotoxicity [21],Cytotoxicity [22],Cytotoxicity [23],Cytotoxicity [24],Cytotoxicity [25],Cytotoxicity [26],Cytotoxicity [27],Cytotoxicity [28],also measured
Cc1cn([C@H]2S[C@@H](CO)[C@H](O)[C@H]2O)c(=O)[nH]c1=O,400 µg/mL,400 µg/mL,400 µg/mL,400 µg/mL,400 µg/mL,400 µg/mL,,,,,,,,,,,,,,,MIC [4]: 400 µg/mL; MIC [8]: 400 µg/mL; MIC [9]: 400 µg/mL; MIC [10]: 400 µg/mL; MIC [11]: 400 µg/mL; MIC [12]: 400 µg/mL; MIC [13]: 400 µg/mL
Cc1cn([C@@H]2S[C@@H](CO)[C@H](O)[C@H]2O)c(=O)[nH]c1=O,400 µg/mL,400 µg/mL,400 µg/mL,400 µg/mL,400 µg/mL,400 µg/mL,,,,,,,,,,,,,,,MIC [14]: 48 µg/mL; MIC [8]: 400 µg/mL; MIC [9]: 400 µg/mL; MIC [10]: 400 µg/mL; MIC [11]: 400 µg/mL; MIC [12]: 400 µg/mL; MIC [13]: 400 µg/mL
O=c1[nH]c(=O)n(C2S[C@@H](CO)[C@H](O)[C@H]2O)cc1Cl (stereo partly drawn),,,,,,,inactive,inactive,inactive,inactive,inactive,inactive,inactive,inactive,inactive,inactive,inactive,inactive,inactive,inactive,
O=c1nc(-n2cncn2)ccn1C1S[C@@H](COCc2ccccc2)[C@H](OCc2ccccc2)[C@H]1OCc1ccccc1 (stereo partly drawn),,,,,,,inactive,inactive,inactive,inactive,inactive,inactive,inactive,inactive,inactive,inactive,inactive,inactive,inactive,inactive,
C[C@@]1(n2ccc(N)nc2=O)CS[C@H](CO)O1,,,,,,,inactive,inactive,inactive,inactive,inactive,inactive,inactive,inactive,inactive,inactive,inactive,inactive,inactive,inactive,
Nc1ncnc2c1ncn2[C@@H]1S[C@@H](CO)[C@H](O)[C@H]1O,400 µg/mL,400 µg/mL,400 µg/mL,400 µg/mL,400 µg/mL,400 µg/mL,,,,,,,,,,,,,,,MIC [4]: 400 µg/mL; MIC [8]: 400 µg/mL; MIC [9]: 400 µg/mL; MIC [10]: 400 µg/mL; MIC [11]: 400 µg/mL; MIC [12]: 400 µg/mL; MIC [13]: 400 µg/mL
Nc1ccn(C2S[C@@H](CO)[C@H](O)[C@H]2O)c(=O)n1 (stereo partly drawn),400 µg/mL,400 µg/mL,400 µg/mL,400 µg/mL,400 µg/mL,400 µg/mL,,,,,,,,,,,,,,,MIC [4]: 400 µg/mL; MIC [8]: 400 µg/mL; MIC [9]: 400 µg/mL; MIC [10]: 400 µg/mL; MIC [11]: 400 µg/mL; MIC [12]: 400 µg/mL; MIC [13]: 400 µg/mL
Nc1ncnc2c1ncn2C1S[C@@H](COCc2ccccc2)[C@H](OCc2ccccc2)[C@H]1OCc1ccccc1 (stereo partly drawn),,,,,,,inactive,inactive,inactive,inactive,inactive,inactive,inactive,inactive,inactive,inactive,inactive,inactive,inactive,inactive,
O=c1[nH]c(=O)n(C2S[C@@H](CO)[C@H](O)[C@H]2O)cc1F (stereo partly drawn),,,,,,,inactive,inactive,inactive,inactive,inactive,inactive,inactive,inactive,inactive,inactive,inactive,inactive,inactive,inactive,
O=c1ccn([C@@H]2S[C@@H](CO)[C@H](O)[C@H]2O)c(=O)[nH]1,400 µg/mL,400 µg/mL,400 µg/mL,400 µg/mL,400 µg/mL,400 µg/mL,,,,,,,,,,,,,,,MIC [4]: 400 µg/mL; MIC [8]: 400 µg/mL; MIC [9]: 400 µg/mL; MIC [10]: 400 µg/mL; MIC [11]: 400 µg/mL; MIC [12]: 400 µg/mL; MIC [13]: 400 µg/mL
O=c1ccn([C@H]2S[C@@H](CO)[C@H](O)[C@H]2O)c(=O)[nH]1,400 µg/mL,400 µg/mL,400 µg/mL,400 µg/mL,400 µg/mL,400 µg/mL,,,,,,,,,,,,,,,MIC [14]: 48 µg/mL; MIC [8]: 400 µg/mL; MIC [9]: 400 µg/mL; MIC [10]: 400 µg/mL; MIC [11]: 400 µg/mL; MIC [12]: 400 µg/mL; MIC [13]: 400 µg/mL
Nc1ncnc2c1ncn2[C@H]1S[C@@H](CO)[C@H](O)[C@H]1O,400 µg/mL,400 µg/mL,400 µg/mL,400 µg/mL,400 µg/mL,400 µg/mL,,,,,,,,,,,,,,,MIC [4]: 400 µg/mL; MIC [8]: 48 µg/mL; MIC [9]: 400 µg/mL; MIC [10]: 400 µg/mL; MIC [11]: 400 µg/mL; MIC [12]: 400 µg/mL; MIC [13]: 400 µg/mL
Nc1ccn(C2S[C@@H](COCc3ccccc3)[C@H](OCc3ccccc3)[C@H]2OCc2ccccc2)c(=O)n1 (stereo partly drawn),,,,,,,inactive,inactive,inactive,inactive,inactive,inactive,inactive,inactive,inactive,inactive,inactive,inactive,inactive,inactive,
CC(=O)OC1S[C@@H](COCc2ccccc2)[C@H](OCc2ccccc2)[C@H]1OCc1ccccc1 (stereo partly drawn),,,,,,,inactive,inactive,inactive,inactive,inactive,inactive,inactive,inactive,inactive,inactive,inactive,inactive,inactive,inactive,
O=c1[nH]c(=O)n(C2S[C@@H](CO)[C@H](O)[C@H]2O)cc1Br (stereo partly drawn),,,,,,,inactive,inactive,inactive,inactive,inactive,inactive,inactive,inactive,inactive,inactive,inactive,inactive,inactive,inactive,
